The source of these data is patent US11286259B2, “Co-crystals of ribociclib and co-crystals of ribociclib monosuccinate, preparation method therefor, compositions thereof, and uses thereof” (Hangzhou SoliPharma Co., Ltd., priority 2017, dated 2022).

The nature of series [1]: stability test in water, stirred at 25° C. for 24 hours, crystal form detection by XRPD. The series is classed as physicochemical. The following applies: for Crystal Form: 100 mg in 5 mL deionized water, stirred at 25° C. for 24 hours, XRPD.
A short description of series [2]: crystal stability test, samples placed at 80° C. for 24 hours, crystal form detection by XRPD. The note with it: after being placed for 24 hours at 80° C. The series is classed as physicochemical.
Series [3] in a line: crystal form stability at high humidity. Type of series: physicochemical.
For series [4] the following is noted: desiccator, 4 months, room temperature, relative humidity of 10% to 90%.
For series [5] the following is noted: high humidity, mentioned in CN105085533A, cited from earlier work.
Series [6] is described as follows: hygroscopicity, isothermal adsorption curve (weight gain versus relative humidity). The series is classed as physicochemical.
The next series in a line: physchem. The following applies: deionized water, 25 °C, thermodynamic from solid.
Series [7] can be described thus: water solubility test (apparent water solubility, HPLC detection). The note with it: 10 mg in 10 mL deionized water, sonicated at 25° C. for 1 minute.
The mark [8] stands for this setting: listed as co-crystal form of ribociclib monosuccinate and citric acid.

Structures are written as SMILES. Where two headings read alike, the source gives them in different places.

For `CN(C)C(=O)c1cc2cnc(Nc3ccc(N4CCNCC4)cn3)nc2n1C1CCCC1.O=C(O)CC(O)(CC(=O)O)C(=O)O.O=C(O)CCC(=O)O`, the “Crystal Form” value is “remains unchanged” in series [1] (setting [8]), “Unchanged” in series [1] (listed as co-crystal of ribociclib monosuccinateand citric acid), “Unchanged” in series [2] and “remains unchanged” in series [2] (setting [8]). Moreover, the “crystal form at high humidity” value in series [3] was “remains unchanged”. Besides, in series [4], the “appearance, XRPD and melting point after storage” value (shortened to “appearance … after storage”) is given as “remain unchanged”.
For `CN(C)C(=O)c1cc2cnc(Nc3ccc(N4CCNCC4)cn3)nc2n1C1CCCC1.O=C(O)CCC(=O)O` [listing 1 of 2 here], the “Crystal Form” value in series [1] is “cannot maintain its original crystal form”. In series [1] (in water, conditions not given, found by the inventors), the “crystal stability in water” value is reported as “crystallinity decreased significantly in water”.
With `CN(C)C(=O)c1cc2cnc(Nc3ccc(N4CCNCC4)cn3)nc2n1C1CCCC1.O=C(O)CCC(=O)O` [listing 2 of 2 here], the “sensitivity of the crystal form to humidity” value is listed as “easily converts to other crystal forms at high humidity” in series [5] and “easily convert to other crystal forms at high humidity” in series [5] (listed as anhydrate crystal form).
Usually solubility stands for the concentration that dissolves in the medium under given conditions. The low end stands for a poorly soluble substance, the high end for a readily soluble substance. Take `CN(C)C(=O)c1cc2cnc(Nc3ccc(N4CCNCC4)cn3)nc2n1C1CCCC1` [co-crystal of ribociclib and saccharin]: the weight gain in series [6] (relative humidity of 0-10%) came out at 0.04%; in series [6] (relative humidity of 10 to 80%) it was 0.45%. The “Crystal Form” value is “Unchanged” in series [2]; “remains unchanged” in series [2] (listed as co-crystal form of ribociclib and saccharin). The solubility at 1 min in “physchem” was approximately 100 µg/mL. Also, the “crystal form at high humidity” value in series [3] is on record as “remains unchanged”. Moreover, the “appearance … after storage” value in series [4] is “remain unchanged”.
As usually defined, the Solubility is the concentration that dissolves in the medium under given conditions. Consider `CN(C)C(=O)c1cc2cnc(Nc3ccc(N4CCNCC4)cn3)nc2n1C1CCCC1.O=C(O)c1cc(=O)[nH]c(=O)[nH]1`, for which the Solubility in series [7] worked out at 110 µg/mL. The “crystal form at high humidity” value in series [3] is given as “remains unchanged”. Besides, the “appearance … after storage” value in series [4] is “remain unchanged”.
